# Measured values published in PubChem BioAssay (NCI).
#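 Step 1: Grow cells in 96-well plates. Step 2: Expose to compound for 48 hours at 5 concentrations. Step 3: Interpolate endpoints linearly; if unreached, use highest concentration. GI50 = concentration required for 50% inhibition of growth. TGI marks complete inhibition of growth.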
# Experiments:
# Experiment in all cases: NCI anticancer screen, dose series, 48 h
# HOP-92 NSCLC = system: HOP-92 NSCLC
# EKVX NSCLC = system: EKVX NSCLC
# UACC-257 melanoma = system: UACC-257 melanoma
# IGROV1 ovarian = system: IGROV1 ovarian
# NCI-H460 lung = system: NCI-H460 lung
# M14 melanoma = system: M14 melanoma
# KM12 colon = system: KM12 colon
# T-47D breast = system: T-47D breast
# BT-549 breast = system: BT-549 breast
# MDA-MB-231 breast = system: MDA-MB-231 breast
SMILES,TGI (HOP-92 NSCLC) [µM],TGI (EKVX NSCLC) [µM],TGI (UACC-257 melanoma) [µM],TGI (IGROV1 ovarian) [µM],TGI (NCI-H460 lung) [µM],TGI (M14 melanoma) [µM],TGI (KM12 colon) [µM],GI50 (HOP-92 NSCLC) [µM],GI50 (T-47D breast) [µM],TGI (T-47D breast) [µM],GI50 (EKVX NSCLC) [µM],GI50 (BT-549 breast) [µM],TGI (BT-549 breast) [µM],GI50 (IGROV1 ovarian) [µM],TGI (MDA-MB-231 breast) [µM],GI50 (MDA-MB-231 breast) [µM],GI50 (NCI-H460 lung) [µM],GI50 (M14 melanoma) [µM],GI50 (KM12 colon) [µM],GI50 (UACC-257 melanoma) [µM]
CC(C)=Cc1cc(C(=O)Nc2ccc(Cl)c(Cl)c2)nc(N)n1,> 100,> 100,> 100,> 100,> 100,> 100,> 100,–,–,–,–,–,–,–,–,–,–,–,–,–
O=C(/C=C\c1ccc(Cl)c(Cl)c1)c1ccc(Cl)cc1Cl,–,56.2,36.5,49.8,54.8,52.4,25.2,–,–,–,–,–,–,–,–,–,–,–,–,–
COc1cc(/C=C2\CN(S(=O)(=O)c3ccccc3)C/C(=C\c3cc(CN4CCCC4)c(O)c(OC)c3)C2=O)cc(CN2CCCC2)c1O,4.69,3.53,–,3.29,–,–,–,1.51,3.76,> 100,1.14,1.99,5.14,1.54,–,–,–,–,–,–
CC(C)OP(=O)(OC(C)C)C(=NCCN=C(NNc1ccc([N+](=O)[O-])cc1)P(=O)(OC(C)C)OC(C)C)NNc1ccc([N+](=O)[O-])cc1,8.82,> 100,> 100,16.7,> 100,> 100,> 100,–,–,–,–,–,–,–,–,–,–,–,–,–
CC(=O)OC1COC(n2ccc3cc(Br)c([N+](=O)[O-])cc32)C(OC(C)=O)C1OC(C)=O (stereo not given),42,> 100,52,> 100,69.5,> 100,> 100,–,–,–,–,–,–,–,–,–,–,–,–,–
Cn1c2ccccc2c2cc(-c3ccccc3)c3c(c21)C(=O)c1ccccc1C3=O,26.3,–,42.9,58.5,–,33.4,75.8,–,–,–,–,–,–,–,–,–,–,–,–,–
COC(=O)C1=C(C)NC(C)=C(C(=O)OCCCN2CCC(c3ccccc3)(c3ccccc3)CC2)C1c1cccc([N+](=O)[O-])c1 (stereo not given),4.26,6.42,3.1,3.21,3.35,3.13,3.21,–,–,30.2,–,–,–,–,2.65,–,–,–,–,–
CCCCCCCC(=O)SCC/C=C/[C@@H]1CC(=O)NCc2cc(ccn2)C2=N[C@@](C)(CS2)C(=O)N[C@@H](C(C)C)C(=O)O1,0.214,> 33.3,–,0.132,> 11.3,> 13.3,2.41,0.0268,0.0838,0.616,0.0376,0.0432,> 33.3,0.00956,> 33.3,0.05,0.00754,0.0111,0.0169,–
CC(=O)/C(=C\c1cccc([N+](=O)[O-])c1)C(=O)Nc1ccccc1C,> 100,> 100,> 100,> 100,> 100,> 100,> 100,–,–,–,–,–,–,–,–,–,–,–,–,–
Clc1ccc(C(c2ccc(Cl)cc2)c2ccccn2)cc1,30.1,52.5,37.9,> 100,34.2,38,42.5,–,–,–,–,–,–,–,–,–,–,–,–,–
Cc1ccc(S(=O)(=O)Nc2ccccc2C(=O)c2ccc(C)c(C)c2)cc1,–,> 100,> 100,> 100,> 100,> 100,> 100,–,–,> 100,–,–,> 100,–,> 100,–,–,–,–,–
Brc1ccccc1C1SCc2nc3ccccc3n21 (stereo not given),26.8,45.6,–,70.6,44.5,31.4,43.4,–,–,–,–,–,–,–,–,–,–,–,–,–
OCCCCCNCc1cc2cc3c(cc2c2cc(OCc4ccccc4)ccc12)OCO3,2.84,3.28,3.15,–,–,3.45,2.97,1.23,–,–,1.75,1.62,2.98,–,2.56,1.3,–,1.94,1.62,1.63
OCC#Cc1ccccc1C#Cc1ccccc1,–,34,32,> 100,35.2,22.5,22.9,–,18.1,37.6,17.6,13.2,27.8,30.3,16.4,3.26,18.2,10.6,10.8,16.2
CCc1cc(Cc2cc(CC)c(NC(=O)C(=O)Cc3ccccn3)c(CC)c2Cl)c(Cl)c(CC)c1NC(=O)C(=O)Cc1ccccn1,> 100,> 100,> 100,> 100,> 100,> 100,> 100,–,–,–,–,–,–,–,–,–,–,–,–,–
C#CC1(O)CCC2C3CCc4cc(Oc5nc(F)nc(-c6c7ccccc7c7sc8ccccc8n67)n5)ccc4C3CC[C@@]21C (stereo not given in full),> 100,–,> 100,> 100,> 100,98.3,> 100,–,–,–,–,–,–,–,–,–,–,–,–,–
COc1ccc([C@H]2[C@@H](F)C(=O)N2c2cc(OC)c(OC)c(OC)c2)cc1F,63.9,> 100,> 100,> 100,91.1,–,> 100,0.266,–,–,0.202,0.0498,33.8,0.0946,> 100,0.355,0.356,–,0.0596,> 100
COC(OC)C(C)CC(=O)N(C)C (stereo not given),> 100,> 100,–,> 100,> 100,> 100,> 100,–,–,–,–,–,–,–,–,–,–,–,–,–
CCOC(=O)CC(=O)ON(C)C(C)=O,–,> 100,> 100,> 100,> 100,> 100,> 100,–,–,–,–,–,–,–,–,–,–,–,–,–
O=c1cc(-c2ccccc2)oc2cc(OCCCOc3ccc4c(=O)cc(-c5ccccc5)oc4c3)ccc12,> 100,> 100,> 100,> 100,> 100,> 100,> 100,–,–,–,–,–,–,–,–,–,–,–,–,–
COc1ccc(S(=O)(=O)NNS(C)(=O)=O)cc1,–,> 100,> 100,> 100,–,> 100,> 100,–,–,–,–,–,–,–,–,–,–,–,–,–
CN(C)c1nc(=Nc2ccc(N=c3nc(N(C)C)ss3)cc2)ss1,> 100,> 100,> 91.4,> 71.7,> 100,25.6,> 100,–,–,–,–,–,–,–,–,–,–,–,–,–
